Measurements as given in ChEMBL document CHEMBL3621195, “Analogues of the marine alkaloids oroidin, clathrodin, and hymenidin induce apoptosis in human HepG2 and THP-1 cancer cells” (Medchemcomm, 2015).

Each compound was assayed on HepG2 (assay: Induction of apoptosis in human HepG2 cells at 50 uM incubated for 24 hrs by Annexin V-FITC and propidium iodide staining based microcapillary flow cytometry). Conditions: not given.
Type: functional

| Structure (SMILES) | Activity [%] |
| --- | --- |
| Cc1c(NC(=O)c2cc3ccccc3o2)cccc1-n1cnnn1 | 45 |
| Nc1nc2c(s1)C[C@@H](NC(=O)c1cc3ccccc3[nH]1)CC2 | 27 |
| Cl.Cl.Nc1nc2c(s1)C[C@@H](NC(=O)[C@@H]1CCCN1)CC2 | 22 |
| Cn1cccc1C(=O)N[C@H]1CCc2nc(N)sc2C1 | 20 |
| Nc1nc2c(s1)C[C@@H](NC(=O)c1ccco1)CC2 | 29 |
| Nc1nc2c(s1)C[C@@H](NCc1ccc[nH]1)CC2 | 30 |
| Nc1nc2c(s1)CC(CNC(=O)c1ccc[nH]1)CC2 (stereo not given) | 20 |
| Nc1nc2c(s1)CC(CNC(=O)c1cc(Br)c(Br)[nH]1)CC2 (stereo not given) | 23 |
| Nc1nc2c(s1)CC(CNC(=O)c1cc3ccccc3[nH]1)CC2 (stereo not given) | 32 |
| CC(C)(C)OC(=O)N1CCC[C@H]1C(=O)NCC1CCc2nc(N)sc2C1 (stereo not given in full) | 23 |
| Cl.Cl.Nc1nc2c(s1)CC(CNC(=O)[C@@H]1CCCN1)CC2 (stereo not given in full) | 27 |
| Nc1nc2c(s1)C[C@@H](NC(=O)c1ccc[nH]1)CC2 | 23 |
| Nc1nc2c(s1)C[C@@H](NC(=O)c1cc(Br)c[nH]1)CC2 | 28 |
| Nc1nc2c(s1)C[C@@H](NC(=O)c1cc(Br)c(Br)[nH]1)CC2 | 35 |
| CNc1nc(-c2cccc(NC(=O)c3cc4ccccc4[nH]3)c2)cn1C(=O)OC(C)(C)C | 90 |
| CC(C)(C)OC(=O)n1cc(-c2ccc(NC(=O)c3ccc[nH]3)cc2)nc1N | 24 |
| Cl.Nc1nc(-c2cccc(NC(=O)c3ccc[nH]3)c2)c[nH]1 | 13 |
| Cl.Nc1nc(-c2ccc(NC(=O)c3ccc[nH]3)cc2)c[nH]1 | 20 |
| CC(C)(C)OC(=O)n1cc(-c2cccc(NC(=O)c3cc[nH]c3)c2)nc1N | 19 |
| CC(C)(C)OC(=O)n1cc(-c2cccc(NC(=O)c3cc4ccccc4[nH]3)c2)nc1N | 75 |
| CC(C)(C)OC(=O)n1cc(-c2ccc(NC(=O)c3cc4ccccc4[nH]3)cc2)nc1N | 90 |
| Cl.Nc1nc(-c2cccc(NC(=O)c3cc4ccccc4[nH]3)c2)c[nH]1 | 77 |
| CC(C)(C)OC(=O)n1cc(-c2cccc(NC(=O)c3c[nH]c4ccccc34)c2)nc1N | 62 |

| Structure (SMILES) | Activity [%] |
| --- | --- |
| Cl.Nc1nc(-c2cccc(NC(=O)c3c[nH]c4ccccc34)c2)c[nH]1 | 55 |
| CNc1nc(-c2cccc(NC(=O)c3ccco3)c2)cn1C(=O)OC(C)(C)C | 44 |
| CC(C)(C)OC(=O)n1cc(-c2cccc(NC(=O)c3ccc[nH]3)c2)nc1N | 21 |
| Cl.Nc1nc(-c2cccc(NC(=O)c3cc4cc(OCc5ccccc5)ccc4[nH]3)c2)c[nH]1 | 50 |
| Nc1nc(/C=C/CNC(=O)c2cc3ccccc3[nH]2)c[nH]1 | 36 |
| Nc1nc(/C=C/CNC(=O)c2cc3cc(F)ccc3[nH]2)c[nH]1 | 38 |
| CC(C)(C)OC(=O)n1cc(-c2cccc(NC(=O)c3cc4cc(OC(F)(F)F)ccc4[nH]3)c2)nc1N | 43 |
| CC(C)(C)OC(=O)n1cc(-c2cccc(NC(=O)c3cc4cc(O)ccc4[nH]3)c2)nc1N | 56 |
| Cl.Nc1nc(-c2cccc(NC(=O)c3cc4cc(O)ccc4[nH]3)c2)c[nH]1 | 19 |
| Cl.Nc1nc(-c2cccc(NC(=O)c3cc4cc(F)ccc4[nH]3)c2)c[nH]1 | 98 |
| COc1ccc2[nH]c(C(=O)Nc3cccc(-c4c[nH]c(N)n4)c3)cc2c1.Cl | 78 |
| Cl.Nc1nc(-c2cccc(NC(=O)c3cc4sccc4[nH]3)c2)c[nH]1 | 96 |
| O=C(Nc1cccc(-c2ccn[nH]2)c1)c1cc2ccccc2[nH]1 | 68 |
| Nc1nc(-c2cccc(NC(=O)c3ccc[nH]3)c2)cn1Cc1ccccc1 | 54 |
| CC(C)(C)OC(=O)n1cc(-c2ccc(NCc3c[nH]cn3)cc2)nc1N | 39 |
| CNC1=NC(c2cccc(NC(=O)c3ccco3)c2)CN1.Cl (stereo not given) | 28 |
| Nc1nc(-c2cccc(NCc3ccc[nH]3)c2)cn1Cc1ccccc1 | 86 |
| CC(C)(C)OC(=O)n1cc(-c2ccc(NCc3ccc[nH]3)cc2)nc1N | 34 |
| CC(C)(C)OC(=O)N1CCC[C@H]1C(=O)Nc1ccc(-c2cn(C(=O)OC(C)(C)C)c(N)n2)cc1 | 20 |
| CC(C)(C)OC(=O)N1CCC[C@@H]1C(=O)Nc1ccc(-c2cn(C(=O)OC(C)(C)C)c(N)n2)cc1 | 23 |
| COCc1c(C(=O)Nc2cccc(-c3ccn[nH]3)c2)sc2cccc(F)c12 | 65 |
| O=C(Nc1cccc(-c2ccn[nH]2)c1)c1ccc2[nH]nnc2c1 | 20 |
| Nc1nc(/C=C/CNC(=O)c2cc(Br)c[nH]2)c[nH]1 | 25 |

| Structure (SMILES) | Activity [%] |
| --- | --- |
| Nc1nc(CCCNC(=O)c2ccc[nH]2)c[nH]1 | 25 |
| Nc1nc(/C=C/CNC(=O)c2ccccc2)c[nH]1 | 33 |
| COc1ccc2[nH]c(C(=O)Nc3cccc(-c4cn(C(=O)OC(C)(C)C)c(N)n4)c3)cc2c1 | 87 |
| CC(C)(C)OC(=O)n1cc(-c2cccc(NC(=O)c3cc4cc(F)ccc4[nH]3)c2)nc1N | 89 |
| CC(C)(C)OC(=O)n1cc(-c2cccc(NC(=O)c3cc4sccc4[nH]3)c2)nc1N | 86 |
| CNC1=NC(c2cccc(NC(=O)c3ccco3)c2)CN1C(=O)OC(C)(C)C (stereo not given) | 32 |
| CC(C)(C)OC(=O)n1cc(-c2cccc(NC(=O)c3cc4cc(OCc5ccccc5)ccc4[nH]3)c2)nc1N | 81 |
| CC(C)(C)OC(=O)n1cc(-c2cccc(NC(=O)c3cc4cc(Cl)ccc4[nH]3)c2)nc1N | 91 |
| CNC1=NC(c2cccc(NC(=O)c3ccc[nH]3)c2)CN1C(=O)OC(C)(C)C (stereo not given) | 31 |
| CNC1=NC(c2cccc(NC(=O)c3cc4ccccc4[nH]3)c2)CN1C(=O)OC(C)(C)C (stereo not given) | 74 |
| Cl.Nc1nc(-c2cccc(NC(=O)c3cc[nH]c3)c2)c[nH]1 | 16 |
| CNC1=NC(c2cccc(NC(=O)c3ccc[nH]3)c2)CN1.Cl (stereo not given) | 28 |
| CNC1=NC(c2cccc(NC(=O)c3cc4ccccc4[nH]3)c2)CN1.Cl (stereo not given) | 27 |
| Cl.Cl.Nc1nc(CN2CCN(C(=O)c3ccc[nH]3)CC2)c[nH]1 | 27 |
| Cl.Cl.Nc1nc(CN2CCN(Cc3ccc[nH]3)CC2)c[nH]1 | 34 |
| Cl.Cl.Cl.Nc1nc(CN2CCN(C(=O)[C@@H]3CCCN3)CC2)c[nH]1 | 28 |
| Cl.Cl.Nc1nc(CN2CCN(C(=O)c3cc4ccccc4[nH]3)CC2)c[nH]1 | 32 |
| Cl.Cl.Nc1nc(CN2CCN(C(=O)c3c[nH]c4ccccc34)CC2)c[nH]1 | 30 |
| Cl.Cl.Nc1nc(CN2CCN(Cc3ccccc3)CC2)c[nH]1 | 32 |
| Cl.Cl.Nc1nc(CN2CCN(C(=O)c3cccnc3)CC2)c[nH]1 | 28 |
| O=C(c1ccc[nH]1)N1CCN(Cc2c[nH]cn2)CC1 | 23 |
| Nc1ncc(CC(=O)N2CCN(C(=O)c3ccc[nH]3)CC2)s1 | 23 |
| Nc1ncc(C(=O)N2CCN(C(=O)c3ccc[nH]3)CC2)s1 | 20 |

| Structure (SMILES) | Activity [%] |
| --- | --- |
| CC(C)(C)OC(=O)n1cc(-c2cccc(NCc3ccc[nH]3)c2)nc1N | 40 |
| O=C1CCc2cc(C(=O)Nc3cccc(-c4ccn[nH]4)c3)ccc2N1 | 26 |
| Cc1nc(-c2cccc(NC(=O)c3cc4ccccc4[nH]3)c2)cs1 | 57 |
| Cl.Cl.Nc1nc(-c2ccc(NC(=O)[C@@H]3CCCN3)cc2)c[nH]1 | 22 |
| O=C(Nc1cccc(-c2ccn[nH]2)c1)c1cc2ccccc2o1 | 40 |
| O=C(Nc1cccc(-c2ccn[nH]2)c1)c1ccc2[nH]cnc2c1 | 47 |
| Cc1cc(C)n2nc(C(=O)Nc3cccc(-c4ccn[nH]4)c3)nc2n1 | 31 |
| O=C(Nc1cccc(-c2ccn[nH]2)c1)c1cc2ccccc2c(=O)[nH]1 | 91 |
| Cc1nc(-c2cccc(NC(=O)c3cn4ccccc4n3)c2)cs1 | 25 |
| CCn1cnnc1-c1cccc(NC(=O)c2cc3ccc(C)cc3[nH]2)c1 | 55 |
| O=C(Nc1cccc(-n2cnnn2)c1)c1cc2ccccc2[nH]1 | 56 |
| O=C(Nc1cccc(-n2cnnn2)c1)c1cn2ccccc2n1 | 27 |
| O=C(NC1CC1)c1cccc(NC(=O)c2cc3c(F)cccc3[nH]2)c1 | 51 |
| Cc1cc(=O)[nH]c(-c2cccc(NC(=O)c3ccc(N(C)C)cc3)c2)n1 | 37 |
| Cc1ccn2cc(C(=O)Nc3cccc(-c4nnco4)c3)nc2c1 | 6 |
| CCn1nnnc1-c1cccc(NC(=O)c2cc3ccccc3[nH]2)c1 | 28 |
| O=C(Nc1cccc(-n2cnnn2)c1)c1cc2c(F)cccc2s1 | 39 |
| Cc1ccc2cc(C(=O)Nc3cccc(C(N)=O)c3)[nH]c2c1 | 66 |
| O=C(Nc1cccc(N2CCCC2=O)c1)c1cc2ccccc2[nH]1 | 43 |
| CC(C)(C)OC(=O)N1CCCC1C(=O)Nc1cccc(-c2cn(C(=O)OC(C)(C)C)c(N)n2)c1 (single isomer, unassigned) | 18 |
| Cl.Cl.Nc1nc(-c2cccc(NC(=O)C3CCCN3)c2)c[nH]1 (single isomer, unassigned) | 16 |
| Nc1ncc(/C=C/CNC(=O)c2ccc[nH]2)[nH]1 [CLATHRODIN] | 27 |
| Nc1ncc(/C=C/CNC(=O)c2cc(Br)c(Br)[nH]2)[nH]1 [OROIDIN] | 35 |

Each compound was assayed on HepG2 (assay: Induction of apoptosis in human HepG2 cells incubated for 24 hrs by Annexin V-FITC and propidium iodide staining based microcapillary flow cytometry). Conditions: HepG2, 24 h.
Type: functional, cell-based

| EC50 [µM] | Structure (SMILES) |
| --- | --- |
| 13 | Cl.Nc1nc(-c2cccc(NC(=O)c3cc4cc(F)ccc4[nH]3)c2)c[nH]1 |
| 18 | COc1ccc2[nH]c(C(=O)Nc3cccc(-c4c[nH]c(N)n4)c3)cc2c1.Cl |
| 42 | Cl.Nc1nc(-c2cccc(NC(=O)c3cc4sccc4[nH]3)c2)c[nH]1 |

Each compound was assayed on THP-1 (assay: Induction of apoptosis in human THP1 cells incubated for 24 hrs by Annexin V-FITC and propidium iodide staining based microcapillary flow cytometry). Conditions: THP-1, 24 h.
Type: functional, cell-based

| EC50 [µM] | Structure (SMILES) |
| --- | --- |
| 23 | Cl.Nc1nc(-c2cccc(NC(=O)c3cc4cc(F)ccc4[nH]3)c2)c[nH]1 |
| 20 | COc1ccc2[nH]c(C(=O)Nc3cccc(-c4c[nH]c(N)n4)c3)cc2c1.Cl |
| > 50 | Cl.Nc1nc(-c2cccc(NC(=O)c3cc4sccc4[nH]3)c2)c[nH]1 |

Each compound was assayed on THP-1 (assay: Induction of apoptosis in human THP1 cells at 50 uM incubated for 24 hrs by Annexin V-FITC and propidium iodide staining based microcapillary flow cytometry). Conditions: not given.
Type: functional

| Structure (SMILES) | Activity [%] |
| --- | --- |
| Cl.Nc1nc(-c2cccc(NC(=O)c3cc4cc(F)ccc4[nH]3)c2)c[nH]1 | 87 |
| COc1ccc2[nH]c(C(=O)Nc3cccc(-c4c[nH]c(N)n4)c3)cc2c1.Cl | 87 |
| Cl.Nc1nc(-c2cccc(NC(=O)c3cc4sccc4[nH]3)c2)c[nH]1 | 12 |

Each compound was assayed on THP-1 (assay: Induction of cell cycle arrest in human THP1 cells assessed accumulation at subG1 phase at 25 uM incubated for 24 hrs by propidium iodide staining based microcapillary flow cytometry (reference value: 2 +/- 1%)). Conditions: not given.
Type: functional

| Structure (SMILES) | Activity [%] |
| --- | --- |
| Cl.Nc1nc(-c2cccc(NC(=O)c3cc4cc(F)ccc4[nH]3)c2)c[nH]1 | 36 |
| COc1ccc2[nH]c(C(=O)Nc3cccc(-c4c[nH]c(N)n4)c3)cc2c1.Cl | 45 |

The compounds below were run on THP-1 (assay: Induction of cell cycle arrest in human THP1 cells assessed accumulation at subG1 phase at 25 uM incubated for 48 hrs by propidium iodide staining based microcapillary flow cytometry (reference value: 2 +/- 1%)). Conditions: not given.
Type: functional

| Structure (SMILES) | Activity [%] |
| --- | --- |
| Cl.Nc1nc(-c2cccc(NC(=O)c3cc4cc(F)ccc4[nH]3)c2)c[nH]1 | 41 |
| COc1ccc2[nH]c(C(=O)Nc3cccc(-c4c[nH]c(N)n4)c3)cc2c1.Cl | 60 |
